ChEMBL document CHEMBL3751668, “A Pyrazolo[3,4-d]pyrimidin-4-amine Derivative Containing an Isoxazole Moiety Is a Selective and Potent Inhibitor of RET Gatekeeper Mutants” (J Med Chem, 2016)

Experiments:
Cytochrome P450 3A4 = Cytochrome P450 3A4 (Homo sapiens, UniProt P08684); assay: Inhibition of CYP3A4 (unknown origin); type: ADME
Cytochrome P450 2D6 = Cytochrome P450 2D6 (Homo sapiens, UniProt P10635); assay: Inhibition of CYP2D6 (unknown origin); type: ADME
Cytochrome P450 2C9 = Cytochrome P450 2C9 (Homo sapiens, UniProt P11712); assay: Inhibition of CYP2C9 (unknown origin); type: ADME
Cytochrome P450 2C19 = Cytochrome P450 2C19 (Homo sapiens, UniProt P33261); assay: Inhibition of CYP2C19 (unknown origin); type: ADME
[1] = Half life in human liver microsomes; type: ADME
[2] = Cytotoxicity against mouse BAF3 cells after 48 hrs by MTT assay; type: cell-based
Cytochrome P450 1A2 = Cytochrome P450 1A2 (Homo sapiens, UniProt P05177); assay: Inhibition of CYP1A2 (unknown origin); type: ADME
[3] = Cytotoxicity against human Nthy-ori 3-1 cells after 10 days by MTT assay; type: cell-based
[4] = target: Ribosomal protein S6 kinase beta-1 (Homo sapiens, UniProt P23443); assay: Inhibition of recombinant human p70S6K by radiometric assay in presence of [gamma-33P]-ATP
[5] = target: Vascular endothelial growth factor receptor 3 (Homo sapiens, UniProt P35916); assay: Inhibition of recombinant human FLT4 by radiometric assay in presence of [gamma-33P]-ATP
[6] = target: Ribosomal protein S6 kinase alpha-1 (Homo sapiens, UniProt Q15418); assay: Inhibition of recombinant human RSK1 by radiometric assay in presence of [gamma-33P]-ATP
[7] = target: T1, Proto-oncogene tyrosine-protein kinase receptor Ret (Homo sapiens, UniProt P07949); assay: Inhibition of human wild type RET by radiometric assay in presence of [gamma-33P]-ATP
[8] = target: Proto-oncogene tyrosine-protein kinase receptor Ret (Homo sapiens, UniProt P07949, V804M); assay: Inhibition of human Ret V804M mutant by radiometric assay in presence of [gamma-33P]-ATP
[9] = target: Voltage-gated inwardly rectifying potassium channel KCNH2 (Homo sapiens, UniProt Q12809); assay: Inhibition of human ERG assessed as prolongation of QT-interval at 100 uM by patch-clamp assay
[10] = target: Proto-oncogene tyrosine-protein kinase receptor Ret (Homo sapiens, UniProt P07949, G691S); assay: Inhibition of human Ret G691S mutant by radiometric assay in presence of [gamma-33P]-ATP
[11] = target: Proto-oncogene tyrosine-protein kinase receptor Ret (Homo sapiens, UniProt P07949, Y791F); assay: Inhibition of human Ret Y791F mutant by radiometric assay in presence of [gamma-33P]-ATP
[12] = target: Proto-oncogene tyrosine-protein kinase receptor Ret (Homo sapiens, UniProt P07949, V804L); assay: Inhibition of human Ret V804L mutant by radiometric assay in presence of [gamma-33P]-ATP
[13] = target: Proto-oncogene tyrosine-protein kinase receptor Ret (Homo sapiens, UniProt P07949, S891A); assay: Inhibition of human Ret S891A mutant by radiometric assay in presence of [gamma-33P]-ATP
[14] = target: Proto-oncogene tyrosine-protein kinase receptor Ret (Homo sapiens, UniProt P07949, M918T); assay: Inhibition of human Ret M918T mutant by radiometric assay in presence of [gamma-33P]-ATP
[15] = Inhibition of recombinant human PKA by radiometric assay in presence of [gamma-33P]-ATP
[16] = target: Dual specificity mitogen-activated protein kinase kinase 2 (Homo sapiens, UniProt P36507); assay: Inhibition of recombinant human MEK2 by radiometric assay in presence of [gamma-33P]-ATP
[17] = target: Tyrosine-protein kinase Fgr (Homo sapiens, UniProt P09769); assay: Inhibition of recombinant human FGR by radiometric assay in presence of [gamma-33P]-ATP
[18] = target: T2, Vascular endothelial growth factor receptor 2 (Homo sapiens, UniProt P35968); assay: Inhibition of recombinant human VGFR2 by radiometric assay in presence of [gamma-33P]-ATP
[19] = target: Dual specificity mitogen-activated protein kinase kinase 1 (Homo sapiens, UniProt Q02750); assay: Inhibition of recombinant human MEK1 by radiometric assay in presence of [gamma-33P]-ATP
[20] = target: Tyrosine-protein kinase HCK (Homo sapiens, UniProt P08631); assay: Inhibition of recombinant human HCK by radiometric assay in presence of [gamma-33P]-ATP
[21] = Cell cycle arrest in human Nthy-ori 3-1 cells assessed as accumulation at G2 phase at 10 uM after 24 hrs by […] staining-based flow cytometric analysis; settings: nthy-ori 3-1, 24 h
[22] = Induction of apoptosis in human Nthy-ori 3-1 cells at 10 uM after 48 hrs by annexinV/PI staining-based flow cytometric analysis; type: cell-based; settings: nthy-ori 3-1, 48 h
TT = assay: Cytotoxicity against human TT cells assessed as suppression of anchorage-independent growth at 0.3 to 1 uM for 30 days by soft agar assay; type: functional
[23] = Ratio of GI50 for human Nthy-ori-3-1 cells to GI50 for RET C634W mutant-mediated human TT cell growth inhibition
[24] = target: T2, Vascular endothelial growth factor receptor 2; assay: Inhibition of TEL-fused VEGFR2 (unknown origin) expressed in mouse BA/F3 cells assessed as cell growth inhibition; type: cell-based; settings: baf3
[25] = tested on: Proto-oncogene tyrosine-protein kinase receptor Ret (Homo sapiens), P07949 [V804M]; settings: BaF3
[26] = target: T1, Proto-oncogene tyrosine-protein kinase receptor Ret; settings: BaF3
Description: Inhibition of wild type TEL-fused RET (unknown origin) expressed in mouse BA/F3 cells assessed as cell growth inhibition after 48 hrs by MTT assay

[27] = tested on: Proto-oncogene tyrosine-protein kinase receptor Ret (Homo sapiens), P07949 [C634W]; settings: TT
Description: Inhibition of RET C634W mutant in human TT cells assessed as cell growth inhibition after 10 days by MTT assay

[28] = tested on: Proto-oncogene tyrosine-protein kinase receptor Ret (Homo sapiens), P07949 [V804L]; settings: BaF3
[29] = tested on: Proto-oncogene tyrosine-protein kinase receptor Ret (Homo sapiens), P07949 [S891A]; settings: BaF3

T1 sequence (P07949 whole entry): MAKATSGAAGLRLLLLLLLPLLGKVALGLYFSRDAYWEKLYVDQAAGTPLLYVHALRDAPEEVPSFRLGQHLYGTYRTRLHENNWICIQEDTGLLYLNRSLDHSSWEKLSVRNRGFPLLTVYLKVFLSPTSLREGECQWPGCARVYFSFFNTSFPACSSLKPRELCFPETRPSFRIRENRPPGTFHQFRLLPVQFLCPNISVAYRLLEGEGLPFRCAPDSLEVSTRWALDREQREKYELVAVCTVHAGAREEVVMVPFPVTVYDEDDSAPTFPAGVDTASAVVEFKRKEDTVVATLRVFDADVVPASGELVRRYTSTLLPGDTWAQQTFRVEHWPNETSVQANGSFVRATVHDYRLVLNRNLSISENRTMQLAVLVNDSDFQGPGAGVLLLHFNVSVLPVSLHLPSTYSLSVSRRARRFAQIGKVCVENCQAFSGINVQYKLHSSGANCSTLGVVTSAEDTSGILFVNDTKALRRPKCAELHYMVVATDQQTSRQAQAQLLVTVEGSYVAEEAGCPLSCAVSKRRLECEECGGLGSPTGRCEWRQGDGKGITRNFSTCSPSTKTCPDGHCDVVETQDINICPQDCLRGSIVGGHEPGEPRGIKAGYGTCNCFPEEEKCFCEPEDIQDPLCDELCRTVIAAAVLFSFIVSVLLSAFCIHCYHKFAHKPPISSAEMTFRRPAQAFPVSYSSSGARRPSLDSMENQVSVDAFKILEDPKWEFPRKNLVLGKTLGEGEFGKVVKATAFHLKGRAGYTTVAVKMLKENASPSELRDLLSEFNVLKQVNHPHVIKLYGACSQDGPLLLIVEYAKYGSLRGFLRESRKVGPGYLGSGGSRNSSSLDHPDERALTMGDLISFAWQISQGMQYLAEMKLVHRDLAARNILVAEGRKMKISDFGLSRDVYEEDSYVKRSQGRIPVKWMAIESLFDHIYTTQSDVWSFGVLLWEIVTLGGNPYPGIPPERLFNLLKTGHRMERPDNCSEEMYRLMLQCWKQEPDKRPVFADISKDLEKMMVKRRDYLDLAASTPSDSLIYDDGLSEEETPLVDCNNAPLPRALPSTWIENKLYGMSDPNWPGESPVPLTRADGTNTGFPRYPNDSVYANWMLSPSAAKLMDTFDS
T2 sequence (P35968 whole entry): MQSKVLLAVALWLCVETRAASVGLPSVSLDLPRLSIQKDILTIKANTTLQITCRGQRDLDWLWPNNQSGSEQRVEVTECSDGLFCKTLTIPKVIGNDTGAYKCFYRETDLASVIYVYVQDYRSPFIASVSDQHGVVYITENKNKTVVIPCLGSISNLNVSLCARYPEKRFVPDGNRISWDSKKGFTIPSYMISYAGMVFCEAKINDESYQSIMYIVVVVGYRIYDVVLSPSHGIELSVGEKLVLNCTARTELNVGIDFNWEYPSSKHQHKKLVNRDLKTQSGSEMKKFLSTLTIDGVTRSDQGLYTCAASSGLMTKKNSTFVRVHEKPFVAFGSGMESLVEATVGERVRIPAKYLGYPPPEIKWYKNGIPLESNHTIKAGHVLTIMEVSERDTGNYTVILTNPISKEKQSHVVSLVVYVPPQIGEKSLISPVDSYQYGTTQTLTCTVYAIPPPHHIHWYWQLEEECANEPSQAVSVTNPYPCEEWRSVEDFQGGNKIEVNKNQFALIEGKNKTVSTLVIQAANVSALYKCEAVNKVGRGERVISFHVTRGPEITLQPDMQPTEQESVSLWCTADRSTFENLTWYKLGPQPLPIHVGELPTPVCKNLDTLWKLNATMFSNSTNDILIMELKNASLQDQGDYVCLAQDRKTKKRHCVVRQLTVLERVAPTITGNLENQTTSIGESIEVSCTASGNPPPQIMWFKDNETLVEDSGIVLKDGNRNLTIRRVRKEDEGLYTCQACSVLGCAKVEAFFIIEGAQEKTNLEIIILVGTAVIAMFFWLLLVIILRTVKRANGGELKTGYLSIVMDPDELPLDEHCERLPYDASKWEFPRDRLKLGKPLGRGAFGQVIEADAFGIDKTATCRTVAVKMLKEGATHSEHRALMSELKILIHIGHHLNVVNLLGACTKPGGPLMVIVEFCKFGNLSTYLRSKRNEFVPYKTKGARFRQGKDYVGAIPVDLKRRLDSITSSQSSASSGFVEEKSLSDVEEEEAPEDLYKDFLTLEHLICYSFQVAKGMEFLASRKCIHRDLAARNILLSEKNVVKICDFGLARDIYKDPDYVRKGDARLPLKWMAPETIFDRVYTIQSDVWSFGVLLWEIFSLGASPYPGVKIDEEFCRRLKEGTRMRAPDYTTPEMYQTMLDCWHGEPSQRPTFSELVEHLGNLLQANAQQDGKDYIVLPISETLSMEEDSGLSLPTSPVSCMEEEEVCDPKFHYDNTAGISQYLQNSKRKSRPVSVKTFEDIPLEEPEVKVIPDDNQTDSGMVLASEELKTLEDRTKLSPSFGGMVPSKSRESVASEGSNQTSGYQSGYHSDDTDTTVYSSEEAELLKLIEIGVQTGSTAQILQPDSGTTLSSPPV
Cytochrome P450 2C9, sequence (P11712 whole entry): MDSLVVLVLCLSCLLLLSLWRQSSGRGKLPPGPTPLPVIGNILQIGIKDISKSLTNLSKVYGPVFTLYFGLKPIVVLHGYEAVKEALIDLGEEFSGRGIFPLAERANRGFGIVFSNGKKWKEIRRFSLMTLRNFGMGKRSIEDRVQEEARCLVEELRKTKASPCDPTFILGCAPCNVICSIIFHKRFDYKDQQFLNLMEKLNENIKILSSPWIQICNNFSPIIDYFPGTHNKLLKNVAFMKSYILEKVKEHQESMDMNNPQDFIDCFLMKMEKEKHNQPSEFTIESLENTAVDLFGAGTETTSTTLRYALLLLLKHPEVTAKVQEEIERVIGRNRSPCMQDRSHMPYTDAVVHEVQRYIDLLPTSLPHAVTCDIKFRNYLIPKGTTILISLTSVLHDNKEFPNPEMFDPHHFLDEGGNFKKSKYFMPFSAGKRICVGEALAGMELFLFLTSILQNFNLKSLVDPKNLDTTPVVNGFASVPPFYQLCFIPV
Proto-oncogene tyrosine-protein kinase receptor Ret (Homo sapiens), P07949 [V804M], sequence (P07949 whole entry V804M): as the sequence (P07949 whole entry) above, with V804M counted along it
Dual specificity mitogen-activated protein kinase kinase 1, sequence (Q02750 whole entry): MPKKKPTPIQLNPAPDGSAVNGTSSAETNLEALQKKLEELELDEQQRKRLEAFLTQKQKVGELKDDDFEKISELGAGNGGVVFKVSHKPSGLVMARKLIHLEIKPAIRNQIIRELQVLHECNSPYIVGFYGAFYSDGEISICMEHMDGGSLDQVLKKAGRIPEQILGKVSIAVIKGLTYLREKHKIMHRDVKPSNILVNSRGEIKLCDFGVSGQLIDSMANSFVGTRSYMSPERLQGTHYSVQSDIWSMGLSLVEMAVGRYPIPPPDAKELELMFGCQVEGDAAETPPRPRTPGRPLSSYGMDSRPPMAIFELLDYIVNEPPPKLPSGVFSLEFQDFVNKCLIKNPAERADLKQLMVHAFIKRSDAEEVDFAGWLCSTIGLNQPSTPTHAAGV
Cytochrome P450 1A2, sequence (P05177 whole entry): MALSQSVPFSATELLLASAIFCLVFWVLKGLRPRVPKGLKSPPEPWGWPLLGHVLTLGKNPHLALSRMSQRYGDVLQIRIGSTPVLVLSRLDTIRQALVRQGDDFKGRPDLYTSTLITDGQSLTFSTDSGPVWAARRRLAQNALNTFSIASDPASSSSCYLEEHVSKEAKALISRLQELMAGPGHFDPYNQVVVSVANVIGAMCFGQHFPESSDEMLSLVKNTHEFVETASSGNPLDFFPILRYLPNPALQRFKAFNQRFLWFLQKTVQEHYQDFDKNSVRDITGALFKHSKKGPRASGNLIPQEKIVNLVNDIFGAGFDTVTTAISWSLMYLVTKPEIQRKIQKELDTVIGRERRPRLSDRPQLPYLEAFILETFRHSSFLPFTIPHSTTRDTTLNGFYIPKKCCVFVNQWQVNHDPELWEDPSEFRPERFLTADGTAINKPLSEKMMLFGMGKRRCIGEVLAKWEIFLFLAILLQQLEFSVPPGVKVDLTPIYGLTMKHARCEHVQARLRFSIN

## CC(C)n1nc(-c2cc(C3CC3)on2)c2c(N)ncnc21
Cytochrome P450 3A4
  IC50: > 30000 nM
Cytochrome P450 2D6
  IC50: > 30000 nM
Cytochrome P450 2C9
  IC50: > 30000 nM
Cytochrome P450 2C19
  IC50: > 30000 nM
[1]
  half-life: 13 min
[2]
  GI50 at 48 h: > 10000 nM
Cytochrome P450 1A2
  IC50: 2000 nM
[3]
  GI50 at 240 h: 13700 nM
[4]
  IC50: 23 nM
[5]
  IC50: 72 nM
[6]
  IC50: 311 nM
[7]
  IC50: 1.4 nM
[8]
  IC50: 4 nM
[9]
  inhibition (INH): Not Active
[10]
  IC50: 10 nM
[11]
  IC50: 3 nM
[12]
  IC50: 21 nM
[13]
  IC50: 2 nM
[14]
  IC50: 6 nM
[15]
  IC50: 39 nM
[16]
  IC50: 82 nM
[17]
  IC50: 65 nM
[18]
  IC50: 96 nM
[19]
  IC50: 142 nM
[20]
  IC50: 137 nM
[21]
  Activity: Non-toxic
[22]
  Activity: Non-toxic
TT
  Activity: 150 CFU
[23]
  RatioGI50: 50
[24]
  GI50: 3000 nM
[25]
  GI50: 320 nM
[26]
  GI50: 80 nM
[27]
  GI50: 240 nM
[28]
  GI50: 500 nM
[29]
  GI50: 90 nM
